Values after ≈ are worked out from the molar mass of the structure shown. Where two headings read alike, the source gives them in different places.
How the values were obtained:
L. brevis WF-1B [1] = experiment: Antibiotic susceptibility assay, broth microdilution; assay type: cell-based, Levilactobacillus brevis; conditions: for MIC: antibiotic against L. brevis WF-1B; for susceptibility of L. brevis WF-1B to the antibiotic: MIC compared with EFSA cut-off value
Protocol: Broth microdilution was used to determine the susceptibility of the L. brevis WF-1B isolate against eight commonly used clinical antibiotics. Broth micro-dilution was performed following the methods according to: International Organization for Standardization, Milk and milk products—Determination of the minimal inhibitory concentration (MIC) of antibiotics applicable to bifidobacteria and non-enterrococcal lactic acid bacteria (LAB) (ISO 10932:2012). Antibiotic stock solutions were prepared following the methods according to: CLSI, Performance Standards for Antimicrobial Susceptibility Testing, 23rd edition, CLSI Standard M100, Wayne, Pa.: Clinical and Laboratory Standards Institute; 2013. The measured minimum inhibitory concentrations (MICs) and microbiological cut-off values from the antibiotic susceptibility assays for L. brevis WF-1B are shown below in Table 5.

L. brevis WF-1B [2] = conditions: EFSA microbiological cut-off value; cited from earlier work
[3] = Levilactobacillus brevis, WF1B, read-out: MIC

In the case of CC1(C)S[C@@H]2[C@H](NC(=O)[C@H](N)c3ccccc3)C(=O)N2[C@H]1C(=O)O [Ampicillin], the MIC (L. brevis WF-1B [1]; [3]) is given as 8 µg/mL (≈ 22.9 µM), the “susceptibility of L. brevis WF-1B to the antibiotic” value (“susceptibility of L. brevis WF-1B” for short) (L. brevis WF-1B [1]) is given as “resistant” and the Cut-off value (L. brevis WF-1B [2]) is given as 2 µg/mL.

For O=C(N[C@H](CO)[C@H](O)c1ccc([N+](=O)[O-])cc1)C(Cl)Cl [Chloramphenicol], the MIC (L. brevis WF-1B [1]; [3]) is listed as 16 µg/mL (≈ 49.5 µM), the “susceptibility of L. brevis WF-1B” value (L. brevis WF-1B [1]) is listed as “resistant” and the Cut-off value (L. brevis WF-1B [2]) is listed as 4 µg/mL.

Molecule CCC[C@@H]1C[C@@H](C(=O)N[C@@H]([C@H]2O[C@H](SC)[C@H](O)[C@@H](O)[C@H]2O)[C@H](C)Cl)N(C)C1 [Clindamycin] has an MIC (L. brevis WF-1B [1]; [3]) of 8 µg/mL (≈ 18.8 µM).

For CC[C@H]1OC(=O)[C@H](C)[C@@H](O[C@H]2C[C@@](C)(OC)[C@@H](O)[C@H](C)O2)[C@H](C)[C@@H](O[C@@H]2O[C@H](C)C[C@H](N(C)C)[C@H]2O)[C@](C)(O)C[C@@H](C)C(=O)[C@H](C)[C@@H](O)[C@]1(C)O [Erythromycin], the MIC (L. brevis WF-1B [1]; [3]) is given as 0.83 µg/mL (≈ 1.13 µM), the “susceptibility of L. brevis WF-1B” value (L. brevis WF-1B [1]) is given as “sensitive” and the Cut-off value (L. brevis WF-1B [2]) is given as 1 µg/mL.

For NC[C@H]1O[C@H](O[C@H]2[C@H](O)[C@@H](O[C@H]3O[C@H](CO)[C@@H](O)[C@H](N)[C@H]3O)[C@H](N)C[C@@H]2N)[C@H](O)[C@@H](O)[C@@H]1O [Kanamycin], the MIC (L. brevis WF-1B [1]; [3]) was 85 µg/mL (≈ 175 µM).

For [H]/N=C(/N)N[C@H]1[C@H](O)[C@@H](O)[C@H](O[C@@H]2O[C@@H](C)[C@](O)(C=O)[C@H]2O[C@@H]2O[C@@H](CO)[C@H](O)[C@@H](O)[C@@H]2NC)[C@@H](N/C(N)=N\[H])[C@@H]1O [Streptomycin], the MIC (L. brevis WF-1B [1]; [3]) is given as 8 µg/mL (≈ 13.8 µM), the “susceptibility of L. brevis WF-1B” value (L. brevis WF-1B [1]) is given as “sensitive” and the Cut-off value (L. brevis WF-1B [2]) is given as 64 µg/mL.

In the case of CN(C)[C@@H]1C(O)=C(C(N)=O)C(=O)[C@@]2(O)C(O)=C3C(=O)c4c(O)cccc4[C@@](C)(O)[C@H]3C[C@@H]12 [Tetracycline], the MIC (L. brevis WF-1B [1]; [3]) is reported as 64 µg/mL (≈ 144 µM).

For Gentamicin, the “susceptibility of L. brevis WF-1B” value (L. brevis WF-1B [1]) is listed as “sensitive”, the MIC (L. brevis WF-1B [1]) is listed as 3 µg/mL and the Cut-off value (L. brevis WF-1B [2]) is listed as 16 µg/mL.

From patent publication US20230248788A1, “COMPOSITIONS AND RELATED METHODS FOR SUPPORTING COMPANION ANIMALS WITH GASTROINTESTINAL DISORDERS” (priority 2020, published 2023)
